Test results taken from US20250114460A1, “NOVEL PLK1 DEGRADATION INDUCING COMPOUND” (UPPTHERA, INC., priority 2021, published 2025).
pIC50: −log10 of the molar value.

Experiments:
Assay type in all cases: cell-based
MRC-5 cell line = test: Cell viability assay for MRC-5 cell line (EZ-Cytox); conditions: Homo sapiens, MRC5, 120 h; MRC-5 normal cell line, 5 days, 10000 nM to 1.52 nM; N.D. = no cytotoxicity until 10 μM; read-out: Activity: IC50 value of Exemplary Compound to MRC-5 cell line
Procedure: 4. Cell Viability Assay for MRC-5 Cell Line
(1) Culture of MRC-5 Cell Line
Passage of cultured cells was maintained within P15.
(2) Treatment of Compounds of the Present Invention
Then, it was cultured in 37° C.
(3) Cytotoxicity Experiment
CO2 incubator for 4 hours.

PLK1 = biological target: T1, PLK1 (Homo sapiens, UniProt P53350); test: Luciferase assay for PLK1 in HeLa LgBit (Plk1-HiBit KI) cell line; conditions: 300 nM compound, luminescence after 9 hours
T1 construct: endogenous in cells; host or cells: HeLa LgBit (Plk1-HiBit KI): HeLa stably expressing LgBit, with a CRISPR/Cas9 knock-in of HiBit at the endogenous PLK1 locus
Summary of the method: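 HeLa cells stably expressing LgBit, with HiBit knocked in at the C-terminus of endogenous Plk1, released from a 24 h 2 mM thymidine block and grown 18 h. Endurazine added, then compound at 300 nM; luminescence tracked in real time, expressed as ratio to DMSO.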

NCI-H526 cell line = test: Cell viability assay for H526 cell (EZ-Cytox); conditions: Homo sapiens, NCI-H526, 120 h; H526 cells, 5 days, 3000 nM to 0.46 nM
Summary of the method: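 NCI-H526 cells were exposed to compound in CO2 incubator culture for 5 days. Viability was read by EZ-Cytox absorbance at 450 nm after 3 min shaking, giving IC50 values.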

T1 sequence (P53350 whole entry): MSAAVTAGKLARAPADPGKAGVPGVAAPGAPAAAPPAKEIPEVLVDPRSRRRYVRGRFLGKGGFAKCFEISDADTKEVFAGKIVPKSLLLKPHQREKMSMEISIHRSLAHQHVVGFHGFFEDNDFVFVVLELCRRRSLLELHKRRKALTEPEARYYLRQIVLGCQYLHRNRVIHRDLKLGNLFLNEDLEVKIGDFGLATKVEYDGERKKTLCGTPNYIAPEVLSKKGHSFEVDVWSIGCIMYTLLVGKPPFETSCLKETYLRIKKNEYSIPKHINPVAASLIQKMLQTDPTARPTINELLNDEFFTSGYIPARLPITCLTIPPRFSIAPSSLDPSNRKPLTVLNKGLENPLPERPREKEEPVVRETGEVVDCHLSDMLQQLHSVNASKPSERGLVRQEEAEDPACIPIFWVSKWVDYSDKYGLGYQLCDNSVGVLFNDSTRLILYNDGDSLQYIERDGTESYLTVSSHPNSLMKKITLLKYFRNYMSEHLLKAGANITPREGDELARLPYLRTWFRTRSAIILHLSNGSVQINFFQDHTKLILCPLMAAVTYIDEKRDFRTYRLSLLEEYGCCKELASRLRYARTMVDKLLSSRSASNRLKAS

SMILES	pIC50 (MRC-5 cell line)	Activity: ratio of the luminescense value of each Exemplary Compound treatment group to DMSO treatment group (PLK1)	pIC50 (NCI-H526 cell line)
COc1cc(C(=O)NN2CCN(C(=O)CCC3CCN(c4ccc5c(c4)CN(C4CCC(=O)NC4=O)C5=O)CC3)CC2)ccc1Nc1ncc2c(n1)N(C(C)C)CC(F)(F)C(=O)N2C (stereo not drawn) [Compound 59, 4-((7,7-difluoro-9-isopropyl-5-methyl-6-oxo-6,7,8,9-tetrahydro-5H-pyrimido[4,5-b][1,4]diazepin-2-yl)amino)-N-(4-(3-(1-(2-(2,6-dioxopiperidin-3-yl)-1-oxoisoindolin-5-yl)piperidin-4-yl)propanoyl)piperazin-1-yl)-3-methoxybenzamide]	< 5.00	++ (++<0.6)	> 7.52
COc1cc(C(=O)NC2CCN(CCCN3CCN(c4cccc5c4C(=O)N(C4CCC(=O)NC4=O)C5=O)CC3)CC2)ccc1Nc1ncc2c(n1)N(C1CCCC1)CC(F)(F)C(=O)N2C (stereo not drawn) [Compound 60, 4-((9-cyclopentyl-7,7-difluoro-5-methyl-6-oxo-6,7,8,9-tetrahydro-5H-pyrimido[4,5-b][1,4]diazepin-2-yl)amino)-N-(1-(3-(4-(2-(2,6-dioxopiperidin-3-yl)-1,3-dioxoisoindolin-4-yl)piperazin-1-yl)propyl)piperidin-4-yl)-3-methoxybenzamide]	5.38	++ (++<0.6)	> 7.52
COc1cc(C(=O)NC2CCN(C(=O)CCC3CCN(c4cccc5c4C(=O)N(C4CCC(=O)NC4=O)C5=O)CC3)CC2)ccc1Nc1ncc2c(n1)N(C1CCCC1)CC(F)(F)C(=O)N2C (stereo not drawn) [Compound 62, 4-((9-cyclopentyl-7,7-difluoro-5-methyl-6-oxo-6,7,8,9-tetrahydro-5H-pyrimido[4,5-b][1,4]diazepin-2-yl)amino)-N-(1-(3-(1-(2-(2,6-dioxopiperidin-3-yl)-1,3-dioxoisoindolin-4-yl)piperidin-4-yl)propanoyl)piperidin-4-yl)-3-methoxybenzamide]	< 5.00	+++ (+++: <0.3)	> 7.00
COc1cc(C(=O)NC2CCN(C(=O)CCC3(O)CCN(c4cccc5c4C(=O)N(C4CCC(=O)NC4=O)C5=O)CC3)CC2)ccc1Nc1ncc2c(n1)N(C1CCCC1)CC(F)(F)C(=O)N2C (stereo not drawn) [Compound 63, 4-((9-cyclopentyl-7,7-difluoro-5-methyl-6-oxo-6,7,8,9-tetrahydro-5H-pyrimido[4,5-b][1,4]diazepin-2-yl)amino)-N-(1-(3-(1-(2-(2,6-dioxopiperidin-3-yl)-1,3-dioxoisoindolin-4-yl)-4-hydroxypiperidin-4-yl)propanoyl)piperidin-4-yl)-3-methoxybenzamide]	< 5.00	+++ (+++: <0.3)	> 7.30
COc1cc(C(=O)NC2CCN(C(=O)CCN3CCN(c4cccc5c4C(=O)N(C4CCC(=O)NC4=O)C5=O)CC3)CC2)ccc1Nc1ncc2c(n1)N(C(C)C)CC(F)(F)C(=O)N2C (stereo not drawn) [Compound 66, 4 4-((7,7-difluoro-9-isopropyl-5-methyl-6-oxo-6,7,8,9-tetrahydro-5H-pyrimido[4,5-b][1,4]diazepin-2-yl)amino)-N-(1-(3-(4-(2-(2,6-dioxopiperidin-3-yl)-1,3-dioxoisoindolin-4-yl)piperazin-1-yl)propanoyl)piperidin-4-yl)-3-methoxybenzamide]	< 5.00	+++ (+++: <0.3)	> 7.30
COc1cc(C(=O)NC2CCN(C(=O)CCN3CCN(c4cccc5c4C(=O)N(C4CCC(=O)NC4=O)C5=O)CC3)CC2)ccc1Nc1ncc2c(n1)N(C1CCC1)CC(F)(F)C(=O)N2C (stereo not drawn) [Compound 68, 4-((9-cyclobutyl-7,7-difluoro-5-methyl-6-oxo-6,7,8,9-tetrahydro-5H-pyrimido[4,5-b][1,4]diazepin-2-yl)amino)-N-(1-(3-(4-(2-(2,6-dioxopiperidin-3-yl)-1,3-dioxoisoindolin-4-yl)piperazin-1-yl)propanoyl)piperidin-4-yl)-3-methoxybenzamide]	< 5.00	+++ (+++: <0.3)	> 7.00
Cc1cc(C(=O)NC2CCN(C(=O)CCN3CCN(c4cccc5c4C(=O)N(C4CCC(=O)NC4=O)C5=O)CC3)CC2)ccc1Nc1ncc2c(n1)N(C1CCCC1)CC(F)(F)C(=O)N2C (stereo not drawn) [Compound 71, 4-((9-cyclopentyl-7,7-difluoro-5-methyl-6-oxo-6,7,8,9-tetrahydro-5H-pyrimido[4,5-b][1,4]diazepin-2-yl)amino)-N-(1-(3-(4-(2-(2,6-dioxopiperidin-3-yl)-1,3-dioxoisoindolin-4-yl)piperazin-1-yl)propanoyl)piperidin-4-yl)-3-methylbenzamide]	< 5.00	++ (++<0.6)	> 7.30
CN1C(=O)C(F)(F)CN(C2CCCC2)c2nc(Nc3ccc(C(=O)NC4CCN(C(=O)CCN5CCN(c6cccc7c6C(=O)N(C6CCC(=O)NC6=O)C7=O)CC5)CC4)cc3O)ncc21 (stereo not drawn) [Compound 72, 4-((9-cyclopentyl-7,7-difluoro-5-methyl-6-oxo-6,7,8,9-tetrahydro-5H-pyrimido[4,5-b][1,4]diazepin-2-yl)amino)-N-(1-(3-(4-(2-(2,6-dioxopiperidin-3-yl)-1,3-dioxoisoindolin-4-yl)piperazin-1-yl)propanoyl)piperidin-4-yl)-3-hydroxybenzamide]	< 5.00	++ (++<0.6)	> 7.00
CN1C(=O)C(F)(F)CN(C2CCCC2)c2nc(Nc3ccc(C(=O)NC4CCN(C(=O)CCN5CCN(c6cccc7c6C(=O)N(C6CCC(=O)NC6=O)C7=O)CC5)CC4)cc3OC(F)(F)F)ncc21 (stereo not drawn) [Compound 74, 4-((9-cyclopentyl-7,7-difluoro-5-methyl-6-oxo-6,7,8,9-tetrahydro-5H-pyrimido[4,5-b][1,4]diazepin-2-yl)amino)-N-(1-(3-(4-(2-(2,6-dioxopiperidin-3-yl)-1,3-dioxoisoindolin-4-yl)piperazin-1-yl)propanoyl)piperidin-4-yl)-3-(trifluoromethoxy)benzamide]	< 5.00	++ (++<0.6)	> 6.70
COc1cc(C(=O)NN2CCN(C(=O)CCC3CCN(c4cccc5c4C(=O)N(C4CCC(=O)NC4=O)C5=O)CC3)CC2)ccc1Nc1ncc2c(n1)N(C1CCCC1)CC(F)(F)C(=O)N2C (stereo not drawn) [Compound 76, 4-((9-cyclopentyl-7,7-difluoro-5-methyl-6-oxo-6,7,8,9-tetrahydro-5H-pyrimido[4,5-b][1,4]diazepin-2-yl)amino)-N-(4-(3-(1-(2-(2,6-dioxopiperidin-3-yl)-1,3-dioxoisoindolin-4-yl)piperidin-4-yl)propanoyl)piperazin-1-yl)-3-methoxybenzamide]	< 5.00	+++ (+++: <0.3)	> 7.00
